The source of these data is patent US7649002B2, “(3,5-dimethylpiperidin-1yl)(4-phenylpyrrolidin-3-yl)methanone derivatives as MCR4 agonists” (Pfizer Inc, priority 2004, dated 2010).

In assay [1] the target is T1, human MCR4 receptor (Homo sapiens, UniProt P32245).
T1 construct: expressed in transfected cells
Put plainly: MCR4 standard functional assay (Protocol C): cAMP AlphaScreen in HEK cells. It is filed as cell-based. Particulars: Table 5. The procedure:
(§1) Stimulation of adenylate cyclase following receptor activation is a widely used measure of functional activity for a number of receptor systems. The functional assay to measure cyclic AMP (cAMP) utilises human embryonic kidney (HEK) cells that stably express the human melanocortin MCR1, MCR3 or MCR4 receptor. Activation of MCR1, MCR3 or MCR4 receptors stimulates adenylate cyclase, generating cAMP, which is measured using AlphaScreen™ (PerkinElmer assay kits.
(§2) The AlphaScreen™ cAMP assay kit consists of ‘donor beads’, ‘acceptor beads’, and biotinylated cAMP which links the different beads together. Excitation of this linked complex at […] in the Fusion™-α microplate analyser results in light emission between […].
(§3) (i) MCR1. MCR3 and MCR4 Standard Functional Assay Methodology [Assay Protocol A, B AND C Respectively]
(§4) Determination of activity against the human MCR1, MCR3 and MCR4 receptor subtypes was carried out for compounds according to the present invention using three immortalised human embryonic kidney (HEK) cell lines that had been biologically engineered to express the human melanocortin MCR1, MCR3 or MCR4 receptor subtypes. These cell lines were engineered using protocols akin to those outlined by Gouarderes et al (Gouarderes, C., (2002) Neuroscience, 115(2); 349-361).
(§5) Such-compound-induced activation of these MCR1, MCR3 or MCR4 receptors lead to the stimulation of the cellular enzyme adenylate cyclase, which in turn lead to the cellular generation, and intra-cellular accumulation, of cyclic adenosine monophosphate (cAMP). […] Intracellular levels of cAMP were quantified using the commercially available AlphaScreen™ assay kits from PerkinElmer. A detailed assay protocol and an explanation of the concept underlying this kit is available through the PerkinElmer website (www.perkinelmer.com). The protocol listed below provides a summary this information.
(§6) The quantity of intracellular cAMP produced by compound-induced activation of the MCR1, MCR3 and MCR4 receptors in these three cell lines was measured using a Fusion™-α microplate analyser set to stimulate at a wavelength of 680 nm and to measure the energy emitted at wave lengths between […]. Compound-induced increases in MCR1, MCR3 or MCR4 receptor activation were subsequently quantified as a decrease in the quantity of light emitted at wavelengths between […]. Data analysis was subsequently performed using a curve-fitting program and the apparent potency of the test compound (expressed as an EC50 and defined as the effective compound concentration that elicited 50% of the maximum compound-induced response) extrapolated from the fitted curve.
Stimulation buffer (as per AlphaScreen™ protocol): HBSS supplemented with 0.5 mM IBMX, 5 mM HEPES, 0.1% (w/v) BSA and 10 mM MgCl2. […]

Assay [2] concerns the target T2, human MCR3 receptor (Homo sapiens, UniProt P41968).
T2 construct: expressed in transfected cells
Kind of assay: MCR3 standard functional assay (Protocol B): cAMP AlphaScreen in HEK cells. It is filed as cell-based. Particulars: Table 5; for Selectivity MCR3/MCR4: MCR4 by Protocol C; for EC50: Protocol B. The procedure:
as §1, §2, §3, §4, §5, §6
Stimulation buffer (as per AlphaScreen™ protocol): HBSS supplemented with 0.5 mM IBMX, 5 mM HEPES, 0.1% (w/v) BSA and 10 mM MgCl2.
Lysis buffer (as per AlphaScreen™ protocol): 5 mM HEPES solution supplemented with 0.1% (w/v) BSA and 0.3% (v/v) Tween-20.
Detection mix (as per AlphaScreen™ protocol): Lysis buffer supplemented with the biotinylated cAMP (10 nM) and Donor beads (10 μg/ml) as supplied in the AlphaScreenT cAMP assay kit.
For the MCR1, MCR3 and MCR4 standard functional assay methodologies compounds were initially dissolved in DMSO to give a compound concentration of 4 mM and then further diluted for the assay in stimulation buffer to give actual concentrations 2-fold greater than that desired as the final assay concentration.
The three HEK cell lines, as detailed hereinbefore, expressing the human MCR1, MCR3 or MCR4 receptor subtypes were grown in T225 vent cap flasks containing 50 ml of growth medium (DMEM supplemented with 10% (v/v) FCS, 2 mM L-Glutamine, 25 mM HEPES and 1.0 mg/ml Geneticin) and maintained in a cell incubator at a temperature of 37° C. and in an environment containing 5% CO2. Cells were harvested when they reached 80-90% confluency by first removing the existing growth medium and then washing with PBS that had been pre-warmed to a temperature of 37° C. […]

T2 sequence (P41968 whole entry): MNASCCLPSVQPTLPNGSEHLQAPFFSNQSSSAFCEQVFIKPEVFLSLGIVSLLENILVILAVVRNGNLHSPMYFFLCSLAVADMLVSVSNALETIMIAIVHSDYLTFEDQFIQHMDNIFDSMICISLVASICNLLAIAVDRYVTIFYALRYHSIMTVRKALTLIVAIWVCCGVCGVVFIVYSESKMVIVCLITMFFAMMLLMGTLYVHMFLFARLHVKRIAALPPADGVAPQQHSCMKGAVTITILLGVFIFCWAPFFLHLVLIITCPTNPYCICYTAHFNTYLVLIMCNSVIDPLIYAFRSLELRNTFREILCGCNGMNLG
T1 sequence (P32245 whole entry): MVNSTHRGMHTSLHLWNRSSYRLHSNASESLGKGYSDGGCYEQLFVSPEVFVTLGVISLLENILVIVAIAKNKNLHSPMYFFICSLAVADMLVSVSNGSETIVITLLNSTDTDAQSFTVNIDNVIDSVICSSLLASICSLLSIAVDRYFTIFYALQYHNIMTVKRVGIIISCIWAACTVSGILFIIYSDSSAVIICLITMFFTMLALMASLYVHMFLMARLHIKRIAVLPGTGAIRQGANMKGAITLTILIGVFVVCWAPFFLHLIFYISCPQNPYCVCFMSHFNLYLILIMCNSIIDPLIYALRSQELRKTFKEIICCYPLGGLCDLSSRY

Take `CCCC[C@@]1(O)[C@H](C)CN(C(=O)[C@@H]2CN(C(C)(C)C)C[C@H]2c2ccc(F)cc2F)C[C@@H]1C` [Example 3, (3R,4R,5S)-4-Butyl-1-{[(3S,4R)-1-tert-butyl-4-(2,4-difluorophenyl)pyrrolidin-3-yl]carbonyl}-3,5-dimethylpiperidin-4-ol]: the figures for the EC50 in assay [1] and in assay [2] were 44 nM and 2620 nM, respectively. Also, the “Selectivity MCR3/MCR4” value in assay [2] is given as 60.
For `CCN1C[C@@H](C(=O)N2C[C@@H](C)[C@](O)(C3CCCCC3)[C@@H](C)C2)[C@H](c2ccc(F)cc2F)C1` (relative stereo) [Example 2, (3R,4R,5S)-4-Cyclohexyl-1-{[(3S*,4R*)4-(2,4-difluorophenyl)-1-ethylpyrrolidin-3-yl]carbonyl}-3,5-dimethylpiperidin-4-ol], the figures for the EC50 in assay [1] and in assay [2] were 68 nM and 8380 nM, respectively. Moreover, the “Selectivity MCR3/MCR4” value in assay [2] came out at 123.
In the case of `Cc1ccc([C@@]2(O)[C@H](C)CN(C(=O)[C@@H]3CN(C(C)(C)C)C[C@H]3c3ccc(F)cc3F)C[C@@H]2C)cc1` [Example 4, (3R,4R,5S)-1-{[(3S,4R)-1-tert-Butyl-4-(24-difluorophenyl)pyrrolidin-3-yl]carbonyl}-3,5-dimethyl-4-(4-methylphenyl)piperidin-4-ol], in assay [1], the EC50 amounted to 45 nM.
